# Measured values as given in US20120041070A1, “METHODS OF TREATING CANCER HAVING AN ABERRANT EGFR OR KRAS GENOTYPE” (priority 2009, published 2012).
# Where two headings read alike, the source gives them in different places.
# How the values were obtained:
# [1] = system: HME-TERT parental (wild type) cells; assay: MTS cell proliferation assay, control HME parental (WT) cells; type: cell-based; conditions: Homo sapiens, 0.5% FBS, read-out: Inhibition of cell proliferation: EC50, WT
# Experimental: (§1) To investigate the effect of phenformin on proliferation of cells carrying an EGFR mutation, HME cell proliferation assays were performed. An isogenic HME-TERT cell line carrying a mutation in EGFR (del E746-A750) was generated by a “knock in” approach. HME-TERT-EGFR (del E746-A750) cells and control HME parental cells were cultured in DMEM/F12K (glucose 17 mM, glutamine 2.5 mM) with 0.5% FBS, and were treated with a series of dilution of Paclitaxel (100 nM top concentration, 3-fold dilution), Phenformin (3 mM top concentration, 3-fold dilution), or metformin (10 mM top concentration, 3-fold dilution), in duplication or triplication. MTS assays were performed 48, 72, 96 or 120 hours after drug treatment. MTS assay is a colorimetric assay for determining the number of viable cells (see, e.g., Cory A H et al., 1991, Cancer communications 3 (7): 207-12, and Wilson, A P, Cytotoxicity and Viability Assays in Animal Cell Culture: A Practical Approach, 3rd ed. (ed. Masters, J. R. W.) Oxford University Press, 2000, Vol. 1). […] Z′ is defined as Z′=1-3(MAX stdev−background stdev)/(MAX−background). A Z′ value greater than 0.4 is acceptable for cell assays, and a Z′ value greater than 0.6 is acceptable for enzyme assays.
# (§2) To investigate the effect of phenformin on proliferation of cells carrying a KRAS mutation, HME cell proliferation assays were performed. An isogenic HME-TERT cell line carrying a mutation in KRAS (G13D) was generated by a “knock in” approach. HME-TERT-KRAS (G13D) cells and control HME parental cells were cultured in DMEM/F12K (glucose 17 mM, glutamine 2.5 mM) with 0.5% FBS, and were treated with a series of dilution of Paclitaxel (100 nM top concentration, 3-fold dilution), Phenformin (3 mM top concentration, 3-fold dilution), or metformin (10 mM top concentration, 3-fold dilution), in duplication or triplication. MTS assays were performed 48, 72, 96 or 120 hours after drug treatment. MTS assay is a colorimetric assay for determining the number of viable cells (see, e.g., Cory A H et al., 1991, Cancer communications 3 (7): 207-12, and Wilson, A P, Cytotoxicity and Viability Assays in Animal Cell Culture: A Practical Approach, 3rd ed. (ed. Masters, J. R. W.) Oxford University Press, 2000, Vol. 1). […] Z′ is defined as Z′=1-3(MAX stdev−background stdev)/(MAX−background). A Z′ value greater than 0.4 is acceptable for cell assays, and a Z′ value greater than 0.6 is acceptable for enzyme assays.
# [2] = system: HME-TERT-EGFR (del E746-A750) cells; assay: MTS cell proliferation assay, HME-TERT cells carrying EGFR mutation; type: cell-based, human; conditions: for EC50: Homo sapiens, HME-TERT-EGFR (del E746-A750), MTS, 0.5% FBS, read-out: Inhibition of cell proliferation: EC50, EGFR
# Experimental: as §1
# [3] = system: HME-TERT-KRAS (G13D) cells; assay: MTS cell proliferation assay, HME-TERT cells carrying KRAS mutation; type: cell-based, human; conditions: for EC50: Homo sapiens, HME-TERT-KRAS (G13D), MTS, 0.5% FBS, read-out: Inhibition of cell proliferation: EC50, KRAS
# Experimental: as §2
# [4] = system: A549 NSCL (KRAS mutant) cells; assay: A549 cell proliferation assay (Cell TiterGlow, total ATP); type: cell-based; conditions: for EC50: Homo sapiens, A549, DMEM 10% FBS, 72 hours, Cell TiterGlow, read-out: EC50, inhibition of A549 cell proliferation
# Experimental: To investigate the effect of phenformin on proliferation of a commonly used cancer cell line A549 NSCL (KRAS mutant), a cell proliferation assay was performed. A549 cells were grown in DMEM with 10% FBS, and were treated with designated concentrations (phenformin dose range 0-100 μM; metformin dose range 0-3000 μM) of drugs for 72 hours. Cell viability was determined with Cell TiterGlow to measure total ATP content in live cells.
Compound,EC50 ([1]; 48 h after drug treatment),EC50 ([1]; 72 h after drug treatment),EC50 ([1]; 96 h after drug treatment),EC50 ([1]; 120 h after drug treatment),EC50 ([2]; 48 h),EC50 ([2]; 72 h),EC50 ([2]; 96 h),EC50 ([2]; 120 h),EC50 ([3]; 48 h),EC50 ([3]; 72 h),EC50 ([3]; 96 h),EC50 ([3]; 120 h),EC50 [4],"inhibition of proliferation of EGFR mutated HME cells compared with wild type cells ([2]; MTS assay, result in words)","inhibition of proliferation of KRAS mutated HME cells compared with wild type cells ([3]; MTS assay, result in words)","fold more sensitive than metformin in inhibiting the proliferation of A549 cells ([4]; A549, 72 hours, ratio of EC50 values)"
CN(C)C(=N)N=C(N)N [metformin],> 3000 µM,> 3000 µM,> 3000 µM,> 3000 µM,> 3000 µM,> 3000 µM,> 3000 µM,> 3000 µM,> 3000 µM,> 3000 µM,> 3000 µM,> 3000 µM,650 µM,,,
N=C(N)NC(=N)NCCc1ccccc1 [phenformin],2090 µM,1690 µM,1140 µM,626 µM,1680 µM,632 µM,486 µM,393 µM,1640 µM,1250 µM,727 µM,440 µM,5 µM,more than that of wild type cells,more than that of wild type cells,about 112 fold
